Measurements from patent US11352362B2, “Polymorph of rucaparib camsylate” (SHANGHAI BEGREAT PHARMATECH, priority 2018, dated 2022).
Structures can show the parent of a compound that is named as a salt.

Experiments:
[1] = Solubility of rucaparib camsylate crystal forms in simulated gastric juice; format: physicochemical; details: for Solubility under low pH conditions: such as pH 1.2; for Solubility in SGF: about 1 mg in 1 mL, shaking 20 min, filtered, HPLC
Method: Determination of the solubility of rucaparib camsylate in simulated gastric juice. Weigh about 1 mg of the powder of Form A, Form B, Form C and Form D of rucaparib camsylate in a 2-mL tube, then add 1 mL of simulated gastric juice (Prepared by adding diluted hydrochloric acid 16.4 ml, 800 ml of water and 10 g of pepsin. After shaking, add water to volume of 1000 ml). After shaking the suspension for 20 min, it was filtered through a needle filter to obtain a clear solution. The rucaparib camsylate content in the solution was analyzed by HPLC method.

[2] = Stress stability of crystal form D (XRPD evaluation); format: physicochemical
Method: In order to evaluate the physical stability of the crystal form D, experiments on the stress stability for the crystal form D were performed. The physical stability of the crystal form D under high temperature, high humidity and light stress conditions was investigated. The experimental conditions of the stress stability are as follows: [table] The crystal form D was placed in the above stress conditions. After sampling at the time point, the stability sample was evaluated by XRPD.

Solubility under low pH conditions [1]	Solubility in SGF ([1]; simulated gastric juice) [µg/mL]	Solubility at 20 minutes compared with existing crystalline forms A, B and C ([1]; simulated gastric juice, low pH, 20 minutes)	Crystal form by XRPD after stress ([2]; Elevate temperature 60° C., 5 day)	Crystal form by XRPD after stress ([2]; Elevate temperature 60° C., 10 day)	Crystal form by XRPD after stress ([2]; High humidity 92.5% RH, 5 day)	Crystal form by XRPD after stress ([2]; High humidity 92.5% RH, 10 day)	Crystal form by XRPD after stress ([2]; Light stress 4500 lux, 5 day)	Crystal form by XRPD after stress ([2]; Light stress 4500 lux, 10 day)	Physical stability under stress conditions ([2]; high temperature, high humidity and light stress conditions)	Structure (SMILES)
low solubility	100	–	–	–	–	–	–	–	–	CNCc1ccc(-c2[nH]c3cc(F)cc4c3c2CCNC4=O)cc1 [Form A, 8-fluoro-2-{4-[(methylamino)methyl]phenyl}-1,3,4,5-tetrahydro-6H-azepino[5,4,3-cd]indol-6-one ((1S,4R)-7,7-dimethyl-2-oxobicyclo[2.2.1]hept-1-yl) methanesulfonic acid salt]
low solubility	130	–	–	–	–	–	–	–	–	CNCc1ccc(-c2[nH]c3cc(F)cc4c3c2CCNC4=O)cc1 [Form B, 8-fluoro-2-{4-[(methylamino)methyl]phenyl}-1,3,4,5-tetrahydro-6H-azepino[5,4,3-cd]indol-6-one ((1S,4R)-7,7-dimethyl-2-oxobicyclo[2.2.1]hept-1-yl) methanesulfonic acid salt]
low solubility	110	–	–	–	–	–	–	–	–	CNCc1ccc(-c2[nH]c3cc(F)cc4c3c2CCNC4=O)cc1 [Form C, 8-fluoro-2-{4-[(methylamino)methyl]phenyl}-1,3,4,5-tetrahydro-6H-azepino[5,4,3-cd]indol-6-one ((1S,4R)-7,7-dimethyl-2-oxobicyclo[2.2.1]hept-1-yl) methanesulfonic acid salt]
–	310	significantly higher	Form D	Form D	Form D	Form D	Form D	Form D	stable	CNCc1ccc(-c2[nH]c3cc(F)cc4c3c2CCNC4=O)cc1 [Form D, 8-fluoro-2-{4-[(methylamino)methyl]phenyl}-1,3,4,5-tetrahydro-6H-azepino[5,4,3-cd]indol-6-one ((1S,4R)-7,7-dimethyl-2-oxobicyclo[2.2.1]hept-1-yl) methanesulfonic acid salt]
